Source: ChEMBL document CHEMBL1201862, “PubChem BioAssay data set” (2004)
Activity calls are given as the source filed them. Rule as the data show it, for most assays here: actives have a measured EC50 and inactives only a lower limit.

How the values were obtained:
[1] = target: T1, RNA-binding protein pos-1 (Caenorhabditis elegans, UniProt G5EF15); assay: disruptors of C. elegans POS-1 RNA interaction – biochemical, fluorescence polarization, dose response (AID 1964);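 also: purified POS-1 fused to maltose binding protein made in E. coli; potency of compounds blocking POS-1 binding to fluorescent RNA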
T1 sequence (G5EF15 whole entry): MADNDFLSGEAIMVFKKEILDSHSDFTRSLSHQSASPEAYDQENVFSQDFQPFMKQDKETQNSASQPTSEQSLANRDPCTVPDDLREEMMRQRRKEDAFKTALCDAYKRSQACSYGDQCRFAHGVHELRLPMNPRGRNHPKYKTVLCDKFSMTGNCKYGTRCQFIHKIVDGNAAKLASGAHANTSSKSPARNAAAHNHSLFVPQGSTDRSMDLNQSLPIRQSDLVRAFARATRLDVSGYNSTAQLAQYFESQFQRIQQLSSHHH

[2] = target: T2, Zinc finger protein mex-5 (Caenorhabditis elegans, UniProt Q9XUB2); assay: potency of MEX-5 RNA-binding blockers – biochemical, C. elegans, fluorescence polarization, dose response (AID 1960)
T2 sequence (Q9XUB2 whole entry): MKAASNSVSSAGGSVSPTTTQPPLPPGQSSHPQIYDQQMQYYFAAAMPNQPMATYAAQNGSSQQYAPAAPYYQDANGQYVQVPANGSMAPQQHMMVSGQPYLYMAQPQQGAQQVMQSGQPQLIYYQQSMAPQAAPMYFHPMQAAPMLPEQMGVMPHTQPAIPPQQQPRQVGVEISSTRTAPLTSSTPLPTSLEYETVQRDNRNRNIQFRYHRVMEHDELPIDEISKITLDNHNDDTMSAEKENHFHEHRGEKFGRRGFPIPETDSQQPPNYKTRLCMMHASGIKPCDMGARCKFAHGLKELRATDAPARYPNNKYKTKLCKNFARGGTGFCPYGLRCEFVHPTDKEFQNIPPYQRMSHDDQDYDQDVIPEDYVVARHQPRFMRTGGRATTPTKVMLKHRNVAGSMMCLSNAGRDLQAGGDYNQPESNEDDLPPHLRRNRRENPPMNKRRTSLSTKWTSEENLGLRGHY

[3] = target: T3, Carboxy-terminal domain RNA polymerase II polypeptide A small phosphatase 1 (Homo sapiens, UniProt Q9GZU7); assay: CTDSP1 inhibitors, concentration-response, biochemical, absorbance readout, ultra-high-throughput screen actives (AID 540297); type: functional
T3 sequence (Q9GZU7 whole entry): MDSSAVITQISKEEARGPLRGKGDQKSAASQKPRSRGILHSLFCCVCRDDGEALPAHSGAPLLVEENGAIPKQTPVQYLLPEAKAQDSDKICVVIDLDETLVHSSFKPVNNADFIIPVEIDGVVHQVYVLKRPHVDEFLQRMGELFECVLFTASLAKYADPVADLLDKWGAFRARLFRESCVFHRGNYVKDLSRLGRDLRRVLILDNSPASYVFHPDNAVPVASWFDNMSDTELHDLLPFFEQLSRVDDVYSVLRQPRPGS

[4] = Trypanosoma cruzi growth suppression in host cells – NIH3T3 host cells, beta-gal luminescence, confirmation (AID 2044); type: functional, cell-based;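 also: intracellular parasites grown in NIH/3T3 mouse fibroblasts as host cells; luminescent beta-galactosidase reporter signal from transgenic T. cruzi replicating inside host cells; inhibitors lower the luminescence signal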
[5] = NIH3T3 cell viability loss – ATP luminescence, mouse fibroblasts, counter-screen, dose response (AID 2010); type: functional, cell-based;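 also: cells exposed to compound for about 90 hours before reading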
Aminopeptidase N = target: T4, Aminopeptidase N (Plasmodium falciparum FcB1/Columbia, UniProt O96935); assay: malaria alanyl aminopeptidase activity blockers – biochemical, fluorogenic H-Leu-NHMec substrate, 1536-well (AID 1445); parameters: species or system Plasmodium falciparum 3D7, 3D7
T4 sequence (O96935 whole entry): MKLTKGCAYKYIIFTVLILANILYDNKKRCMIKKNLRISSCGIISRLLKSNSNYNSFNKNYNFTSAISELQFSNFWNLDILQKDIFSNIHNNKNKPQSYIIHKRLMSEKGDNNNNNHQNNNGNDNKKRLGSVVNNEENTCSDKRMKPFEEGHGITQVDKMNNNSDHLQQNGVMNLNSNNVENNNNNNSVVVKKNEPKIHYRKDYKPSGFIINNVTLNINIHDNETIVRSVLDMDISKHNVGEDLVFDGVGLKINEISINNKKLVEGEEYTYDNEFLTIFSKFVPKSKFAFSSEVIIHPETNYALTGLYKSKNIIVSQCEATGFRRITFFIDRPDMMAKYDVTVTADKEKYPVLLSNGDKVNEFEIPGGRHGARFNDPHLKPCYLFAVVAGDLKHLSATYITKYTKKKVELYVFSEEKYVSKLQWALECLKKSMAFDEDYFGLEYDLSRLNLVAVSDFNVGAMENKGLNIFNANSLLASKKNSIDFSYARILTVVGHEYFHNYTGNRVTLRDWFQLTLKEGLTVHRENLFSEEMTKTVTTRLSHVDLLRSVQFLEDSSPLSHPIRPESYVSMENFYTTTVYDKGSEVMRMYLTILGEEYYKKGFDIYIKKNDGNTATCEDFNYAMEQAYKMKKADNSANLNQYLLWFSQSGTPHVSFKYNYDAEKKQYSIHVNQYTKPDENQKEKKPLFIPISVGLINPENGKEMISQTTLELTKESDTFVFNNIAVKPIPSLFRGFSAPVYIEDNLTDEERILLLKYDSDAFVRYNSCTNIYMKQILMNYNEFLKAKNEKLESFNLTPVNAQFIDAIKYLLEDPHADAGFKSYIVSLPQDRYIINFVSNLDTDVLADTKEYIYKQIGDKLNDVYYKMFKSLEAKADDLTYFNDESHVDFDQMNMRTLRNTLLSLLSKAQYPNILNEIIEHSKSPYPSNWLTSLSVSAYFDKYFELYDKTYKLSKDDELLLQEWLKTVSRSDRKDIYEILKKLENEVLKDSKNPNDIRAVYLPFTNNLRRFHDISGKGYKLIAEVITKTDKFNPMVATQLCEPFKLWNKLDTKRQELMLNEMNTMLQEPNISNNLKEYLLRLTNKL

BJ [6] = assay: BJ-TERT fibroblast viability loss – cell-based, RAS-independent, luminescence, dose response (AID 1933); type: functional; settings: Homo sapiens
BJ [7] = assay: cells; type: functional, cell-based; settings: Homo sapiens
BJ [8] = assay: BJ-TERT-LT-ST fibroblast viability loss – cell-based, RAS-independent, luminescence, dose response (AID 1935); type: functional; settings: Homo sapiens;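 also: BJ fibroblasts immortalized with TERT plus LT and ST oncogenes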
[9] = DRD fibroblast viability loss – cell-based, non-viral oncogenic, luminescence, dose response (AID 1934); type: functional; settings: Homo sapiens

Compound: CC(C)(C)OC(=O)NCCCCC1=CC2=CC(=O)C(C)(OC(=O)c3cnc4ccccc4n3)C(=O)C2=CO1 (centres undefined)
- EC50 [1]: 17.2 µM (active)
- EC50 [2]: 15 µM (active)

Compound: O=C1c2ccccc2C(=O)N1Nc1ccc([N+](=O)[O-])cc1[N+](=O)[O-]
- IC50 [3]: 16.9 µM (active)

Compound: N=c1c(S(=O)(=O)c2ccc(Cl)cc2)cc2c(=O)n3ccccc3nc2n1CCc1ccccc1
- EC50 [1]: > 300 µM (inconclusive)
- EC50 [2]: 1.39 µM (active)
- EC50 [4]: 0.377 µM (active)
- EC50 [5]: > 60 µM (not active)

Compound: N#Cc1cc2c(nc1SCc1ccccc1)CCCC2=O
- IC50 (Aminopeptidase N): 86.4 µM (active)

Compound: COCCNc1oc(/C=C/c2ccccc2)nc1C#N
- IC50 (Aminopeptidase N): 36.7 µM (active)

Compound: CN(C)Cc1c(O)c(Cl)cc2c3c(c(=O)oc12)CCCC3
- IC50 (Aminopeptidase N): 30.1 µM (active)

Compound: Cc1ccc2[nH]c(/C(C#N)=C/c3ccc(-c4cccc([N+](=O)[O-])c4)o3)nc2c1
- IC50 [3]: 6.06 µM (active)

Compound: O=C(O)c1cccc(N2C(=O)c3cccc4c(Cl)ccc(c34)C2=O)c1
- IC50 (Aminopeptidase N): 83.3 µM (active)

Compound: Cc1nc([N+](=O)[O-])c(Br)n1CC(=O)c1cccc([N+](=O)[O-])c1
- EC50 (BJ [6]): > 150 µM (not active)
- EC50 (BJ [7]): > 150 µM (not active)
- EC50 (BJ [8]): > 150 µM (inconclusive)
- EC50 [9]: > 150 µM (not active)

Compound: O=C(NCCF)C1Nc2ccc(OC(F)(F)F)cc2C2C=CCC12 (centres undefined)
- EC50 [1]: > 300 µM (not active)
- EC50 [2]: > 300 µM (not active)

Compound: CCn1c(CNC(=O)c2cccs2)nnc1SCC(=O)Nc1cc(Cl)ccc1C
- IC50 (Aminopeptidase N): 6.86 µM (active)
